Laboratory results taken from US12116698B1, “Protein surface recognition via chemically enhanced phage display” (The Trustees of Boston College, priority 2019, dated 2024).
Entries after “also recorded” stand apart in the source; their conditions may differ. Where a SMILES comes first, the peptide text is derived from it. Where no end group is shown, it is not given here. [ ]: non-standard residue; d: D form. The star is where a group is joined. APBA = (2-acetyl-5-(3-(2-iodoacetamido)propoxy)phenyl)boronic acid, Cys modified with it (Cm in name), CC(=O)c1ccc(OCCCNC(=O)C*)cc1B(O)O; X1 = CC(=O)c1ccc(OCCCNC(=O)C*)cc1B(O)O; Dap = NC[C@H](N)C(=O)O; Cam = NC(=O)C*

Legend:
streptavidin = streptavidin (Streptomyces avidinii, UniProt P22629); assay type: binding; conditions: for fluorescence brightness of streptavidin beads on addition of BSA: BSA 1 mg/mL; for fluorescence staining of streptavidin beads after surface lysine acetylation: beads treated with Ac-NHS, 3 mM; for fluorescence staining of streptavidin-coated beads: excess biotin present; for effect of biotin on fluorescence staining of streptavidin-coated beads: with and without biotin; for staining of streptavidin-coated beads by SrtA screen peptides: even at 25 μm; for staining of streptavidin beads without SrtA coating: streptavidin beads alone, no SrtA
sortase A (SrtA) [1] = target: T1, sortase A (SrtA) (Staphylococcus aureus, UniProt Q2FV99); assay type: binding, S. aureus; conditions: for staining of SrtA-coated beads in the presence of BSA: 10 mg/mL BSA; for fluorescence staining of SrtA-coated beads: peptide at 25 μM
sortase A (SrtA) [2] = target: T1, sortase A (SrtA); conditions: competition with DMMA
Text: To probe the peptides' binding site on SrtA, a competition experiment was designed using a known small molecule inhibitor of SrtA, DMMA (FIG. 8E).

T1 sequence (Q2FV99 whole entry): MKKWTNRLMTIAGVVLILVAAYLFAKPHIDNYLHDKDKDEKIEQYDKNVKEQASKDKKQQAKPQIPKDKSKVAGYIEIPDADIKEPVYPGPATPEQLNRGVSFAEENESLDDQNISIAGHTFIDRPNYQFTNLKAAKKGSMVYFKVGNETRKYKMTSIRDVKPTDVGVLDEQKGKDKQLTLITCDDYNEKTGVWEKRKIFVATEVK
streptavidin, sequence (P22629 37-163 limits assumed): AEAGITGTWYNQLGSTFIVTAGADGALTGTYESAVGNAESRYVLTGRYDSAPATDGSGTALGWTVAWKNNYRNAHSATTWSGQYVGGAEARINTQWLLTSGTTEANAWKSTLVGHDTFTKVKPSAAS

CC(=O)c1ccc(OCCCNC(=O)CSC[C@H](NC(=O)[C@H](C)N)C(=O)N[C@H](C(=O)N2CCC[C@H]2C(=O)N[C@@H](CCCNC(=N)N)C(=O)N[C@@H](CO)C(=O)N[C@@H](C)C(=O)N[C@@H](CC(N)=O)C(=O)N[C@@H](Cc2ccc(O)cc2)C(=O)N[C@@H](CSCC(=O)NCCCOc2ccc(C(C)=O)c(B(O)O)c2)C(=O)NCC(=O)NCC(=O)NCC(=O)N[C@@H](CN)C(N)=O)[C@@H](C)O)cc1B(O)O [SA1, ACmTPRSANYCmGGGDap] (H-AC(X1)TPRSANYC(X1)GGG[Dap]-NH2; N-terminus and C-terminus assumed)
fluorescence brightness of streptavidin beads on addition of BSA (streptavidin): minimally affected
fluorescence staining of streptavidin beads after surface lysine acetylation (streptavidin): completely abolished the fluorescence staining
fluorescence staining of streptavidin-coated beads (streptavidin): fluorescence staining of the beads at low micromolar concentrations
effect of biotin on fluorescence staining of streptavidin-coated beads (streptavidin): marginal differences in fluorescence intensity with and without biotin

CC(=O)c1ccc(OCCCNC(=O)CSC[C@H](NC(=O)[C@H](C)N)C(=O)N[C@@H](CC(=O)O)C(=O)NCC(=O)N[C@@H](CCCNC(=N)N)C(=O)N2CCC[C@H]2C(=O)N[C@@H](CC(=O)O)C(=O)N[C@@H](CCCNC(=N)N)C(=O)N[C@@H](C)C(=O)N[C@@H](CSCC(=O)NCCCOc2ccc(C(C)=O)c(B(O)O)c2)C(=O)NCC(=O)NCC(=O)NCC(=O)N[C@@H](CN)C(N)=O)cc1B(O)O [SA2, ACmDGRPDRACmGGGDap] (H-AC(X1)DGRPDRAC(X1)GGG[Dap]-NH2; N-terminus and C-terminus assumed)
fluorescence brightness of streptavidin beads on addition of BSA (streptavidin): minimally affected
fluorescence staining of streptavidin beads after surface lysine acetylation (streptavidin): greatly reduced the fluorescence staining
fluorescence staining of streptavidin-coated beads (streptavidin): fluorescence staining of the beads at low micromolar concentrations
effect of biotin on fluorescence staining of streptavidin-coated beads (streptavidin): marginal differences in fluorescence intensity with and without biotin

CC(=O)c1ccc(OCCCNC(=O)CSC[C@H](NC(=O)[C@H](C)N)C(=O)N[C@@H](Cc2c[nH]cn2)C(=O)N2CCC[C@H]2C(=O)N[C@H](C(=O)N[C@@H](CO)C(=O)NCC(=O)N[C@@H](CCC(N)=O)C(=O)N[C@@H](CCCCN)C(=O)N[C@@H](CSCC(=O)NCCCOc2ccc(C(C)=O)c(B(O)O)c2)C(=O)NCC(=O)NCC(=O)NCC(=O)N[C@@H](CN)C(N)=O)C(C)C)cc1B(O)O [W1, ACmHPVSGQKCmGGGDap] (H-AC(X1)HPVSGQKC(X1)GGG[Dap]-NH2)
staining of streptavidin-coated beads by SrtA screen peptides (streptavidin): fail to stain streptavidin-coated beads
staining of streptavidin beads without SrtA coating (streptavidin): little binding to the agarose beads
staining of SrtA-coated beads in the presence of BSA (sortase A (SrtA) [1]): greater inhibition was observed
fluorescence staining of SrtA-coated beads (sortase A (SrtA) [1]): strong fluorescence staining of the SrtA-coated beads
effect of DMMA addition on SrtA binding (sortase A (SrtA) [2]): no inhibition of the SrtA binding

CC(=O)c1ccc(OCCCNC(=O)CSC[C@H](NC(=O)[C@H](C)N)C(=O)N[C@@H](CC(C)C)C(=O)N[C@@H](CC(N)=O)C(=O)N[C@@H](CO)C(=O)N[C@@H](CO)C(=O)N[C@@H](CCC(N)=O)C(=O)N2CCC[C@H]2C(=O)N[C@@H](CO)C(=O)N[C@@H](CSCC(=O)NCCCOc2ccc(C(C)=O)c(B(O)O)c2)C(=O)NCC(=O)NCC(=O)NCC(=O)N[C@@H](CN)C(N)=O)cc1B(O)O [W2, ACmLNSSQPSCmGGGDap] (H-AC(X1)LNSSQPSC(X1)GGG[Dap]-NH2; N-terminus and C-terminus assumed)
staining of streptavidin-coated beads by SrtA screen peptides (streptavidin): fail to stain streptavidin-coated beads
staining of streptavidin beads without SrtA coating (streptavidin): little binding to the agarose beads
staining of SrtA-coated beads in the presence of BSA (sortase A (SrtA) [1]): effective binding; also recorded: stain the SrtA coated beads
fluorescence staining of SrtA-coated beads (sortase A (SrtA) [1]): strong fluorescence staining of the SrtA-coated beads
effect of DMMA addition on SrtA binding (sortase A (SrtA) [2]): binds the SrtA surface instead of the catalytic site; also recorded: no inhibition of the SrtA binding

ACmIQKNTTTCmGGGDap (AC(APBA)IQKNTTTC(APBA)GGG[Dap]; not fully specified (residue 14); also: APBA dimer modification, fluorescent label on Dap14) [W3]
staining of streptavidin-coated beads by SrtA screen peptides (streptavidin): fail to stain streptavidin-coated beads
staining of streptavidin beads without SrtA coating (streptavidin): no fluorescence staining of the streptavidin beads alone
fluorescence staining of SrtA-coated beads (sortase A (SrtA) [1]): weak fluorescence staining of SrtA-coated beads; also recorded: much lower fluorescence staining of the beads

ACmTPNKTPKCmGGGDap (AC(APBA)TPNKTPKC(APBA)GGG[Dap]; not fully specified (residue 14); also: APBA dimer modification, fluorescent label on Dap14) [W4]
staining of streptavidin-coated beads by SrtA screen peptides (streptavidin): fail to stain streptavidin-coated beads
staining of streptavidin beads without SrtA coating (streptavidin): no fluorescence staining of the streptavidin beads alone
fluorescence staining of SrtA-coated beads (sortase A (SrtA) [1]): weak fluorescence staining of SrtA-coated beads; also recorded: much lower fluorescence staining of the beads

AcmDGRPDRACmGGGDap (AC(Cam)DGRPDRAC(APBA)GGG[Dap]; not fully specified (residue 14); also: fluorescent label on Dap, identity not given here) [SA2-IA, reference compound]
fluorescence staining of streptavidin-coated beads (streptavidin): failed to stain the streptavidin beads

AcmTPRSANYCmGGGDap (AC(Cam)TPRSANYC(APBA)GGG[Dap]; not fully specified (residue 14); also: fluorescent label on Dap, identity not given here) [SA1-IA, reference compound]
fluorescence staining of streptavidin-coated beads (streptavidin): failed to stain the streptavidin beads
